{"source": "patent US20150190369A1", "about": "“QUERCETIN-3-GLUCOSIDE AND USES THEREOF” (priority 2012, published 2015)", "key": {"PCSK9": {"test_system": "PCSK9", "assay": "ELISA for secreted PCSK9 in conditioned media of Huh7 cells", "assay_type": "cell-based, human", "conditions": "Huh7, 24 h", "description": "Media were collected and PCSK9 levels therein were determined by ELISA.\nAt passage, Huh7 cells were routinely seeded at sub-confluence (˜10^6 cells/10-cm dish) in Dulbecco's modified Eagle's medium (DMEM) containing 10% fetal bovine serum (FBS) or LPDS (for experiments) and 50 μg/ml gentamycin. They were incubated overnight at 37° C., in a humidified 5% CO2-95% air atmosphere. Cells were treated or not with Q3G at defined concentrations and for defined lengths of time. Media were collected and centrifuged at 200 g for 5 min to sediment suspended cells; supernatants were collected and supplemented with 0.33 volumes of a 3×-concentrated PIC. Cell monolayers were rinsed with ice-cold phosphate-buffered saline (PBS); they were overlaid with 0.5 of the RIPA lysis buffer (50 mM Tris-HCl, pH 8, 150 mM NaCl, 1% NP-40, 0.5% Na-deoxycholate and 0.1% SDS) supplemented with 1× PIC. After 20 min in an ice bath, the lysates were centrifuged at 14,000 g and 4° C. for 20 min, and supernatants were collected. Conditioned media and lysates were stored at −20° C. until analysis.\nThe assays for PCSK9 and insulin were conducted as prescribed by kit manufacturers, using a Thermo Scientific plate reader. For example, PCSK9 levels in conditioned media were measured using the human PCSK9 ELISA kit from Circulex, as specified the manufacturer. The assay was a sandwich immunoassay using two antibodies (A and B) recognizing different PCSK9 epitopes. Briefly, aliquot of diluted media were overlaid on wells coated with anti-PCSK9 antibody A. After 1-h incubation, the wells were washed, overlaid with a solution of HRP-conjugated anti-PCSK9 antibody B, and incubated for 1 h. They were washed again, and overlaid with a solution of tetra-methylbenzidine as a chromogenic substrate for HRP. After 15 min, the reaction was stopped with ammonium sulfate and the absorbance of the reaction mixtures measured by spectrophotometry at 450 nm. All the steps were performed at room temperature. Standards consisted of recombinant human PCSK9."}, "recombinant human PCSK9": {"biological_target": "recombinant human PCSK9 (Homo sapiens, UniProt Q8NBP7)", "sequence (Q8NBP7 153-692)": "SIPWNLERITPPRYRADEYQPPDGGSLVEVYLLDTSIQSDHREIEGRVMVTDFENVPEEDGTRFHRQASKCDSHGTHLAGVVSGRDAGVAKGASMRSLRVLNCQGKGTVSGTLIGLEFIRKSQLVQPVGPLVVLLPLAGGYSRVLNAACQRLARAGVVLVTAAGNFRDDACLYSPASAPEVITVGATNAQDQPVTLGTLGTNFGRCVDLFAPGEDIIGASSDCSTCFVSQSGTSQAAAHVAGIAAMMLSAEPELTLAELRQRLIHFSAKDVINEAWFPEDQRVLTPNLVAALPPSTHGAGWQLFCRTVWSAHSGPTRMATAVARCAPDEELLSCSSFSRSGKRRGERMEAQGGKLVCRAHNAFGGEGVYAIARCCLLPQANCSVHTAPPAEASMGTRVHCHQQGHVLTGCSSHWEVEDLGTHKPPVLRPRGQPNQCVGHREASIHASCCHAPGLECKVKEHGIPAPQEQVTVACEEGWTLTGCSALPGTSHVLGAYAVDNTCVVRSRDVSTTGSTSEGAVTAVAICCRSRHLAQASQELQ", "assay": "UV spectrometry of PCSK9-Q3G interaction", "assay_type": "binding", "conditions": "5 μM PCSK9 with equimolar Q3G in PBS, 5-min incubation", "procedure": "The data discussed herein indicate that chronic exposure of Huh7 cells to Q3G reduces PCSK9 accumulation in the culture medium by delaying its transit through the secretory pathway. The delay appears not to be caused by impaired proteolytic processing of its precursor. Quercetin is known to bind, covalently in some cases, to selected cellular proteins. […] Purified recombinant PCSK9 (5μM) was mixed with or without equimolar amount of Q3G in phosphate-buffered saline. After a 5-min incubation, the UV spectrum of the mix was taken. […] It is believed that such a binding may alter PCSK9 conformation and/or retard its navigation through the secretory pathway, and, ultimately, diminish its LDL-degrading activity."}, "LDLR": {"test_system": "LDLR", "assay": "Immunoblotting for LDLR in MIN6 β-cells", "assay_type": "cell-based, mouse", "procedure": "The corresponding photographs of the immunoblotting results are also shown. MIN6 cells were incubated for 24 h in the presence of 16 μM Q3G. Cell lysates were analyzed by semi-quantitative immunoblotting using different antibodies successively.\nMouse insulinoma MIN6 cells were cultured in a 5% CO2-95% air atmosphere at 37° C. in DMEM medium containing 10% heat-inactivated fetal bovine serum, 1 mM Na-pyruvate, 2 mM L-glutamine, 25 mM D-glucose, and 28 μM β-mercaptoethanol. Q3G at a specific final concentration was supplemented to the culture medium and incubation was conducted for a selected length of time. Media were collected, spun at 600 g to sediment suspended cells, supplemented with 0.5 volumes of 3×RIPA-PIC (1×: 50 mM Tris-HCl, pH 8, 150 mM NaCl, 1% NP-40, 0.5% Na-deoxycholate and 0.1% SDS and PIC). Cells were lysed in 1×RIPA-PIC for immuno-blotting, or in RNA extraction buffer for qRT-PCR.\nCell lysates were fractionated by SDS-PAGE and electrophoretically transferred onto a polyvinylidene fluoride membrane. […] The signal was captured on X-ray film and immunoreactive bands analyzed by densitometry on a Syngene's ChemiGenius^2XE Bio Imaging System (Cambridge, Mass.) within the dynamic range of the instrument. […]"}}}
{"smiles": "O=c1c(O[C@@H]2O[C@H](CO)[C@@H](O)[C@H](O)[C@H]2O)c(-c2ccc(O)c(O)c2)oc2cc(O)cc(O)c12", "note": "[Q3G, quercetin-3-O-β-D-glucoside]", "values": [{"measurement": "level of PCSK9 in spent media", "setting": "PCSK9; co-treatment 5 μM Q3G with simvastatin 0.2 and 1 μM, versus simvastatin alone", "value": "reducing"}, {"measurement": "decrease of PCSK9 in conditioned media", "setting": "PCSK9; highest Q3G concentration tested (0 to 10 μM)", "value": 35, "unit": "%"}, {"measurement": "interaction with PCSK9 (changes of optical density and spectral profile)", "setting": "recombinant human PCSK9", "value": "suggest interaction"}, {"measurement": "amount of cell-surface LDL-receptor versus untreated MIN6 β-cells", "setting": "LDLR; MIN6, 24 h, 16 μM Q3G", "value": "approximately 1.4 times"}, {"measurement": "relative amount of LDLR protein compared with mRNA", "setting": "LDLR; MIN6, Q3G-treated", "value": "in concordance with the relative amounts of mRNA"}]}
